Results on 6 compounds are retold here after ChEMBL document CHEMBL3244120, “Monomethylthio analogues of 1-(2,4,5-trimethoxyphenyl)-2-aminopropane” (J Med Chem, 1977).

Data set [1] deals with Brain. Put plainly: Drug uptake in Sprague-Dawley rat brain assessed as R to S enantiomeric ratio at 30 mg/kg, ip after 60 mins by electron-capture gas chromatographic analysis. The data set is classed as ADME, organism-based. On the set-up: dose 30 mg/kg, route intraperitoneal. Particulars: in vivo, 1 h.
The test system of data set [2] is Oryctolagus cuniculus. Put plainly: Hyperthermic activity in New Zealand rabbit at 0.25 to 21.2 umol/kg administered in marginal ear vein as solution of amine hydrochloride in nonpyrogenic saline by time-temperature curve integration method relative to l-(2,5-dimethoxy-4-methylphenyl)-2-aminopropane. It counts as functional.
Data set [3] deals with Oryctolagus cuniculus. As to the kind of experiment: Hyperthermic activity in New Zealand rabbit assessed as mean maximum rise in rectal temperature at 0.25 to 21.2 umol/kg administered in marginal ear vein as solution of amine hydrochloride in nonpyrogenic saline relative to l-(2,5-dimethoxy-4-methylphenyl)-2-aminopropane. The data set is classed as functional, Rectum.
Data set [4] deals with Brain. As to the kind of experiment: Drug uptake in Sprague-Dawley rat brain assessed as R to S enantiomeric ratio at 30 mg/kg, ip after 30 mins by electron-capture gas chromatographic analysis. It counts as ADME, organism-based. Conditions: in vivo, 0.5 h. On the set-up: dose 30 mg/kg, route intraperitoneal.
For data set [5], the system named is Oryctolagus cuniculus. As to the kind of experiment: Hyperthermic activity in New Zealand rabbit assessed as mean maximum rise in rectal temperature at 7.1 umol/kg administered in marginal ear vein as solution of amine hydrochloride in nonpyrogenic saline. It counts as functional, Rectum.
Data set [6] has as its system Oryctolagus cuniculus. As to the kind of experiment: Hyperthermic activity in New Zealand rabbit assessed as mean maximum rise in rectal temperature at 14.2 umol/kg administered in marginal ear vein as solution of amine hydrochloride in nonpyrogenic saline. The data set is classed as functional, Rectum.
Data set [7] concerns Oryctolagus cuniculus. Put plainly: Hyperthermic activity in New Zealand rabbit assessed as dose required for 1 degC rise in rectal temperature administered in marginal ear vein as solution of amine hydrochloride in nonpyrogenic saline. The data set is classed as functional, Rectum.
The subject of data set [8] is Oryctolagus cuniculus. Put plainly: Hyperthermic activity in New Zealand rabbit assessed as increase in rectal temperature measured as time to reach peak effect at 7.1 umol/kg administered in marginal ear vein as solution of amine hydrochloride in nonpyrogenic saline. It counts as functional, Rectum.
In data set [9] the test system is Brain. As to the kind of experiment: Drug uptake in Sprague-Dawley rat brain assessed as R to S enantiomeric ratio at 30 mg/kg, ip after 15 mins by electron-capture gas chromatographic analysis. It counts as ADME, organism-based. Also on record: dose 30 mg/kg, route intraperitoneal. Conditions: in vivo, 0.25 h.
For data set [10], the system named is Oryctolagus cuniculus. As to the kind of experiment: Hyperthermic activity in New Zealand rabbit assessed as increase in rectal temperature measured as time to reach peak effect at 14.2 umol/kg administered in marginal ear vein as solution of amine hydrochloride in nonpyrogenic saline. The data set is classed as functional, Rectum.
The test system of data set [11] is Oryctolagus cuniculus. As to the kind of experiment: Hyperthermic activity in New Zealand rabbit assessed as increase in rectal temperature measured as time to reach peak effect at 10.6 umol/kg administered in marginal ear vein as solution of amine hydrochloride in nonpyrogenic saline. It counts as functional, Rectum.
The subject of data set [12] is Oryctolagus cuniculus. Put plainly: Hyperthermic activity in New Zealand rabbit assessed as mean maximum rise in rectal temperature at 21.3 umol/kg administered in marginal ear vein as solution of amine hydrochloride in nonpyrogenic saline. The data set is classed as functional, Rectum.
In data set [13] the test system is Oryctolagus cuniculus. Put plainly: Hyperthermic activity in New Zealand rabbit assessed as increase in rectal temperature measured as time to reach peak effect at 5.3 umol/kg administered in marginal ear vein as solution of amine hydrochloride in nonpyrogenic saline. It counts as functional, Rectum.
The test system of data set [14] is Oryctolagus cuniculus. As to the kind of experiment: Hyperthermic activity in New Zealand rabbit assessed as mean maximum rise in rectal temperature at 10.6 umol/kg administered in marginal ear vein as solution of amine hydrochloride in nonpyrogenic saline. It counts as functional, Rectum.
Data set [15] relates to Oryctolagus cuniculus. As to the kind of experiment: Hyperthermic activity in New Zealand rabbit assessed as increase in rectal temperature measured as time to reach peak effect at 21.3 umol/kg administered in marginal ear vein as solution of amine hydrochloride in nonpyrogenic saline. It counts as functional, Rectum.
Data set [16] concerns Oryctolagus cuniculus. As to the kind of experiment: Hyperthermic activity in New Zealand rabbit assessed as mean maximum rise in rectal temperature at 5.3 umol/kg administered in marginal ear vein as solution of amine hydrochloride in nonpyrogenic saline. It counts as functional, Rectum.
In data set [17] the test system is Oryctolagus cuniculus. As to the kind of experiment: Hyperthermic activity in New Zealand rabbit assessed as mean maximum rise in rectal temperature at 2 umol/kg administered in marginal ear vein as solution of amine hydrochloride in nonpyrogenic saline. The data set is classed as functional, Rectum.
In data set [18] the test system is Oryctolagus cuniculus. Put plainly: Hyperthermic activity in New Zealand rabbit assessed as increase in rectal temperature measured as time to reach peak effect at 0.67 umol/kg administered in marginal ear vein as solution of amine hydrochloride in nonpyrogenic saline. It counts as functional, Rectum.
The test system of data set [19] is Oryctolagus cuniculus. As to the kind of experiment: Hyperthermic activity in New Zealand rabbit assessed as mean maximum rise in rectal temperature at 0.67 umol/kg administered in marginal ear vein as solution of amine hydrochloride in nonpyrogenic saline. The data set is classed as functional, Rectum.
Data set [20] has as its system Oryctolagus cuniculus. Put plainly: Hyperthermic activity in New Zealand rabbit assessed as increase in rectal temperature measured as time to reach peak effect at 0.22 umol/kg administered in marginal ear vein as solution of amine hydrochloride in nonpyrogenic saline. It counts as functional, Rectum.
Data set [21] has as its system Oryctolagus cuniculus. Put plainly: Hyperthermic activity in New Zealand rabbit assessed as increase in rectal temperature measured as time to reach peak effect at 2 umol/kg administered in marginal ear vein as solution of amine hydrochloride in nonpyrogenic saline. It counts as functional, Rectum.
The subject of data set [22] is Brain. As to the kind of experiment: Drug uptake in Sprague-Dawley rat brain assessed as R to S enantiomeric ratio at 30 mg/kg, ip after 120 mins by electron-capture gas chromatographic analysis. It counts as ADME, organism-based. On the set-up: dose 30 mg/kg, route intraperitoneal. Conditions: in vivo, 2 h.
In data set [23] the test system is Oryctolagus cuniculus. As to the kind of experiment: Hyperthermic activity in New Zealand rabbit assessed as mean maximum rise in rectal temperature at 0.22 umol/kg administered in marginal ear vein as solution of amine hydrochloride in nonpyrogenic saline. It counts as functional, Rectum.
The test system of data set [24] is Brain. Put plainly: Drug uptake in Sprague-Dawley rat brain assessed as R to S enantiomeric ratio at 15 mg/kg, ip after 60 mins by electron-capture gas chromatographic analysis. The data set is classed as ADME, organism-based. On the set-up: dose 15 mg/kg, route intraperitoneal. Conditions: in vivo, 1 h.
The test system of data set [25] is Oryctolagus cuniculus. Put plainly: Hyperthermic activity in New Zealand rabbit assessed as increase in rectal temperature measured as time to reach peak effect at 1 umol/kg administered in marginal ear vein as solution of amine hydrochloride in nonpyrogenic saline. The data set is classed as functional, Rectum.
The test system of data set [26] is Oryctolagus cuniculus. As to the kind of experiment: Hyperthermic activity in New Zealand rabbit assessed as mean maximum rise in rectal temperature at 0.50 umol/kg administered in marginal ear vein as solution of amine hydrochloride in nonpyrogenic saline. It counts as functional, Rectum.
For data set [27], the system named is Brain. Put plainly: Drug uptake in Sprague-Dawley rat brain assessed as R to S enantiomeric ratio at 15 mg/kg, ip after 15 mins by electron-capture gas chromatographic analysis. The data set is classed as ADME, organism-based. Also on record: dose 15 mg/kg, route intraperitoneal. Particulars: in vivo, 0.25 h.
Data set [28] deals with Brain. Put plainly: Drug uptake in Sprague-Dawley rat brain assessed as R to S enantiomeric ratio at 15 mg/kg, ip after 120 mins by electron-capture gas chromatographic analysis. It counts as ADME, organism-based. On the set-up: dose 15 mg/kg, route intraperitoneal. Conditions: in vivo, 2 h.
For data set [29], the system named is Oryctolagus cuniculus. As to the kind of experiment: Hyperthermic activity in New Zealand rabbit assessed as increase in rectal temperature measured as time to reach peak effect at 0.50 umol/kg administered in marginal ear vein as solution of amine hydrochloride in nonpyrogenic saline. The data set is classed as functional, Rectum.
Data set [30] deals with Oryctolagus cuniculus. As to the kind of experiment: Hyperthermic activity in New Zealand rabbit assessed as increase in rectal temperature measured as time to reach peak effect at 0.25 umol/kg administered in marginal ear vein as solution of amine hydrochloride in nonpyrogenic saline. The data set is classed as functional, Rectum.
Data set [31] concerns Oryctolagus cuniculus. Put plainly: Hyperthermic activity in New Zealand rabbit assessed as mean maximum rise in rectal temperature at 0.25 umol/kg administered in marginal ear vein as solution of amine hydrochloride in nonpyrogenic saline. It counts as functional, Rectum.
The test system of data set [32] is Oryctolagus cuniculus. As to the kind of experiment: Hyperthermic activity in New Zealand rabbit assessed as mean maximum rise in rectal temperature at 1 umol/kg administered in marginal ear vein as solution of amine hydrochloride in nonpyrogenic saline. It counts as functional, Rectum.
In data set [33] the test system is Brain. As to the kind of experiment: Drug uptake in Sprague-Dawley rat brain assessed as R to S enantiomeric ratio at 15 mg/kg, ip after 30 mins by electron-capture gas chromatographic analysis. The data set is classed as ADME, organism-based. Also on record: dose 15 mg/kg, route intraperitoneal. Particulars: in vivo, 0.5 h.
Data set [34] relates to Brain. As to the kind of experiment: Drug uptake in Sprague-Dawley rat brain assessed as R to S enantiomeric ratio at 15 mg/kg, ip after 5 mins by electron-capture gas chromatographic analysis. The data set is classed as ADME, organism-based. Also on record: dose 15 mg/kg, route intraperitoneal. Conditions: in vivo.

Regarding `COc1cc(CC(C)N)c(SC)cc1OC.Cl` (racemic), the values for the Ratio in the data set with Brain [1], in the data set on Brain [4] and with Brain [9] were 1.43, 1.09 and 1.14, respectively. Moreover, the “fold change (FC)” value in the data set with Oryctolagus cuniculus [2] is given as 0.022; with Oryctolagus cuniculus [3] it was 0.017. The results for the T in the data set on Oryctolagus cuniculus [5] and in the data set with Oryctolagus cuniculus [6] were 0.82 °C and 1.01 °C, respectively. For the same compound, the Activity in the data set on Oryctolagus cuniculus [7] was 14 µmol/kg. Further, the Time in the data set with Oryctolagus cuniculus [8] was found to be 105 min; with Oryctolagus cuniculus [10], 75 min.
Regarding `COc1cc(OC)c(SC)cc1CC(C)N.Cl` (racemic), the figures for the Ratio in the data set with Brain [1], in the data set with Brain [4] and in the data set on Brain [9] were 1.35, 1.11 and 1.1, respectively. For the same compound, the figures for the “fold change (FC)” value in the data set on Oryctolagus cuniculus [2] and with Oryctolagus cuniculus [3] were 0.039 and 0.028, respectively. Further, the Time is on record as 135 min with Oryctolagus cuniculus [11], 120 min with Oryctolagus cuniculus [13] and 180 min with Oryctolagus cuniculus [15]. In addition, the values for the T in the data set on Oryctolagus cuniculus [12], with Oryctolagus cuniculus [14] and with Oryctolagus cuniculus [16] were 1.62 °C, 1.09 °C and 0.6 °C, respectively. Also, in the data set with Oryctolagus cuniculus [7], the Activity turned out to be 9.77 µmol/kg.
Turning to `COc1cc(SC)c(OC)cc1CC(C)N.Cl` (racemic), the Ratio is 1.23 with Brain [1], 1.14 in the data set on Brain [4], 1.62 in the data set with Brain [22] and 1.54 in the data set on Brain [9]. The “fold change (FC)” value in the data set with Oryctolagus cuniculus [2] is listed as 0.64; in the data set with Oryctolagus cuniculus [3] it was 0.54. Also, the T in the data set on Oryctolagus cuniculus [17] was 2.31 °C; in the data set with Oryctolagus cuniculus [19], 1.15 °C; in the data set with Oryctolagus cuniculus [23] it was 0.6 °C. Further, the Time was determined as 165 min with Oryctolagus cuniculus [18], 120 min in the data set with Oryctolagus cuniculus [20] and 195 min in the data set on Oryctolagus cuniculus [21]. In addition, the Activity in the data set on Oryctolagus cuniculus [7] is 0.5 µmol/kg.
With `COc1cc(CC(C)N)c(OC)cc1C.Cl` (racemic), the “fold change (FC)” value with Oryctolagus cuniculus [2] and in the data set with Oryctolagus cuniculus [3] was 1 each time. Further, the Ratio was found to be 1.55 with Brain [24]; 1.06 in the data set with Brain [27]; 1.34 in the data set on Brain [28]; 1.46 in the data set with Brain [33]; 0.95 in the data set with Brain [34]. The Time in the data set on Oryctolagus cuniculus [25] came out at 165 min; with Oryctolagus cuniculus [29], 195 min; in the data set with Oryctolagus cuniculus [30], 135 min. In addition, the T in the data set with Oryctolagus cuniculus [26] was 1.98 °C; in the data set with Oryctolagus cuniculus [31], 0.8 °C; in the data set on Oryctolagus cuniculus [32], 2.85 °C. In the data set on Oryctolagus cuniculus [7], the Activity was 0.27 µmol/kg.
Turning to `CCN(CC)C(=O)[C@@H]1C=C2c3cccc4[nH]cc(c34)C[C@H]2N(C)C1` [LYSERGIDE], the “fold change (FC)” value in the data set on Oryctolagus cuniculus [3] is given as 33.
For `COc1cc(CCN)cc(OC)c1OC` [MESCALINE], the “fold change (FC)” value in the data set with Oryctolagus cuniculus [3] came to 0.0006.
